Measurements: patent US10167262B2, “Herbicidal substituted 3-arylpyrazoles” (FMC CORPORATION, priority 2014, dated 2019)
Where two headings read alike, the source gives them in different places.

Experiments:
Assay type in all cases: in vivo
[1] = system: barnyardgrass (Echinochloa crus-galli); test: Test A pre-/postemergence greenhouse herbicide test, visual injury rating 0-100; settings: for pest or weed control at 500 g/ha: 500 g ai/ha
Procedure, shortened: (§1)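 Each species was treated both before emergence, via soil spray onto a loam–sand blend, and after emergence at the one- to two-leaf stage. Plants stayed in the greenhouse around 10 days before visual injury assessment.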

corn (Zea mays) = test: as above; settings: for plant injury at 500 g/ha: 500 g ai/ha
Procedure, shortened: as §1

[2] = system: giant foxtail (Setaria faberii); test: as above; settings: for pest or weed control at 500 g/ha: 500 g ai/ha
Procedure, shortened: as §1

[3] = system: large (Lg) crabgrass (Digitaria sanguinalis); test: as above; settings: for pest or weed control at 500 g/ha: 500 g ai/ha
Procedure, shortened: as §1

[4] = system: morningglory (Ipomoea spp.); test: as above; settings: for pest or weed control at 500 g/ha: 500 g ai/ha
Procedure, shortened: as §1

[5] = system: pigweed (Amaranthus retroflexus); test: as above; settings: for pest or weed control at 500 g/ha: 500 g ai/ha
Procedure, shortened: as §1

[6] = system: velvetleaf (Abutilon theophrasti); test: as above; settings: Abutilon theophrasti, 240 h, read-out: Plant response rating (0 to 100 scale), Velvetleaf; for pest or weed control at 500 g/ha: 500 g ai/ha
Procedure, shortened: as §1

[7] = system: wheat (Triticum aestivum); test: as above; settings: for plant injury at 500 g/ha: 500 g ai/ha
Procedure, shortened: as §1

[8] = system: Italian ryegrass (Lolium multiflorum); test: Test C pre-/postemergence greenhouse test, plant response rating 0-100; settings: Lolium multiflorum; for pest or weed control at 62 g/ha: 62 g ai/ha; for pest or weed control at 125 g/ha: 125 g ai/ha; for pest or weed control at 250 g/ha: 250 g ai/ha; for pest or weed control at 500 g/ha: 500 g ai/ha
Description: (§2) Seeds of plant species selected from blackgrass (Alopecurus myosuroides), Italian ryegrass (Lolium multiflorum), winter wheat (Triticum aestivum), galium (catchweed bedstraw, Galium aparine), corn (Zea mays), large (Lg) crabgrass (Digitaria sanguinalis), giant foxtail (Setaria faberii), johnsongrass (Sorghum halepense), lambsquarters (Chenopodium album), morningglory (Ipomoea coccinea), yellow nutsedge (Cyperus esculentus), pigweed (Amaranthus retroflexus), ragweed (common ragweed, Ambrosia elatior), soybean (Glycine max), barnyardgrass (Echinochloa crus-galli), oilseed rape (Brassica napus), waterhemp (common waterhemp, Amaranthus rudis), and velvetleaf (Abutilon theophrasti) were planted into a blend of loam soil and sand and treated preemergence with test chemicals formulated in a non-phytotoxic solvent mixture which included a surfactant.
(§3) At the same time, plants selected from these crop and weed species and also winter barley (Hordeum vulgare), bermudagrass (Cynodon dactylon), downy bromegrass (Bromus tectorum), canarygrass (Phalaris minor), cocklebur (common cocklebur, Xanthium strumarium), woolly cupgrass (Eriochloa villosa), deadnettle (henbit deadnettle, Lamium amplexicaule), green foxtail (Setaria viridis), goosegrass (Eleusine indica), surinam grass (Brachiaria decumbens), windgrass (Apera spica-venti), chickweed (common chickweed, Stellaria media), kochia (Kochia scoparia), and wild oat (Avena fatua), were planted in pots containing Redi-Earth® planting medium (Scotts Company, 14111 Scottslawn Road, Marysville, Ohio 43041) comprising spaghnum peat moss, vermiculite, wetting agent and starter nutrients and treated with postemergence applications of test chemicals formulated in the same manner. Plants ranged in height from 2 to 18 cm (1- to 4-leaf stage) for postemergence treatments. Treated plants and controls were maintained in a greenhouse for 13 to 15 days, after which time all species were compared to controls and visually evaluated. Plant response ratings, summarized in Table C, are based on a scale of 0 to 100 where 0 is no effect and 100 is complete control. A dash (-) response means no test result.

[9] = system: giant foxtail (Setaria faberii); test: as above; settings: Setaria faberi; for pest or weed control at 62 g/ha: 62 g ai/ha; for pest or weed control at 125 g/ha: 125 g ai/ha; for pest or weed control at 250 g/ha: 250 g ai/ha; for pest or weed control at 500 g/ha: 500 g ai/ha
Description: as §2, §3

soybean (Glycine max) = test: as above; settings: Glycine max; for plant injury at 62 g/ha: 62 g ai/ha; for plant injury at 125 g/ha: 125 g ai/ha; for plant injury at 250 g/ha: 250 g ai/ha; for plant injury at 500 g/ha: 500 g ai/ha
Description: as §2, §3

[10] = system: chickweed (common chickweed, Stellaria media); test: Test C postemergence greenhouse test, plant response rating 0-100; settings: Stellaria media, post-emergence
Procedure, shortened: (§4)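 Visual rating vs. controls, 0 (no effect) to 100 (complete control), 13–15 d after postemergence treatment. Potted plants, 1- to 4-leaf stage (2–18 cm), greenhouse-held.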

kochia (Kochia scoparia) = test: as above; settings: Bassia scoparia, post-emergence
Procedure, shortened: as §4

wild oat (Avena fatua) = test: as above; settings: Avena fatua, post-emergence
Procedure, shortened: as §4

[11] = post-emergence, Postemergence, read-out: Plant response rating (0 to 100), Ryegrass, Italian
[12] = post-emergence, Postemergence, scale 0 to 100
[13] = pre-emergence, Preemergence, read-out: Plant response rating, Ryegrass, Italian
[14] = post-emergence, Postemergence, read-out: Plant response rating (0 to 100), Foxtail, Giant
[15] = pre-emergence, Preemergence, read-out: Plant response rating, Foxtail, Giant
[16] = post-emergence, Postemergence, read-out: Plant response rating (0 to 100), Soybean
[17] = pre-emergence, Preemergence, read-out: Plant response rating, Soybean

In the case of `COC(OC)(c1ccccc1)c1c[nH]nc1-c1cc(Cl)cc(Cl)c1` [Compound 13, 3-(3,5-dichlorophenyl)-4-(dimethoxyphenylmethyl)-1H-pyrazole], the pest or weed control at 125 g/ha ([1]; Echinochloa crus-galli, post-emergence, 240 h, Postemergence, 125 g ai/ha, read-out: Plant response rating (0 to 100 scale), Barnyardgrass) is reported as 0%, the pest or weed control at 500 g/ha ([1]; Echinochloa crus-galli, post-emergence, 240 h, Postemergence, read-out: Plant response rating (0 to 100 scale), Barnyardgrass) is reported as 0% and the pest or weed control at 500 g/ha ([1]; Echinochloa crus-galli, pre-emergence, 240 h, Preemergence, read-out: Plant response rating (0 to 100 scale), Barnyardgrass) is reported as 0%. The “Barnyardgrass plant response rating (0 = no effect, 100 = complete control)” value ([1]; Preemergence, 125 g ai/ha) was 0, the “Corn plant response rating (0 = no effect, 100 = complete control)” value (corn (Zea mays); Preemergence, 125 g ai/ha) was 0 and the plant injury at 125 g/ha (corn (Zea mays); Zea mays, post-emergence, 240 h, Postemergence, 125 g ai/ha, read-out: Plant response rating (0 to 100 scale), Corn) was 0%. For the same compound, the plant injury at 500 g/ha (corn (Zea mays); Zea mays, post-emergence, 240 h, Postemergence, read-out: Plant response rating (0 to 100 scale), Corn) was 0%, the plant injury at 500 g/ha (corn (Zea mays); Zea mays, pre-emergence, 240 h, Preemergence, read-out: Plant response rating (0 to 100 scale), Corn) was 0% and the “Foxtail, Giant plant response rating (0 = no effect, 100 = complete control)” value ([2]; Preemergence, 125 g ai/ha) was 0. It also gave a pest or weed control at 125 g/ha ([2]; Setaria faberi, post-emergence, 240 h, Postemergence, 125 g ai/ha, read-out: Plant response rating (0 to 100 scale), Foxtail, Giant) of 0%, a pest or weed control at 500 g/ha ([2]; Setaria faberi, post-emergence, 240 h, Postemergence, read-out: Plant response rating (0 to 100 scale), Foxtail, Giant) of 0% and a pest or weed control at 500 g/ha ([2]; Setaria faberi, pre-emergence, 240 h, Preemergence, read-out: Plant response rating (0 to 100 scale), Foxtail, Giant) of 0%. The pest or weed control at 125 g/ha ([3]; Digitaria sanguinalis, post-emergence, 240 h, Postemergence, 125 g ai/ha, read-out: Plant response rating (0 to 100 scale), Crabgrass, Large) was 0%, the pest or weed control at 500 g/ha ([3]; Digitaria sanguinalis, post-emergence, 240 h, Postemergence, read-out: Plant response rating (0 to 100 scale), Crabgrass, Large) was 0% and the pest or weed control at 500 g/ha ([3]; Digitaria sanguinalis, pre-emergence, 240 h, Preemergence, read-out: Plant response rating (0 to 100 scale), Crabgrass, Large) was 0%. The “Crabgrass, Large plant response rating (0 = no effect, 100 = complete control)” value ([3]; Preemergence, 125 g ai/ha) was 0, the pest or weed control at 125 g/ha ([4]; Ipomoea, post-emergence, 240 h, Postemergence, 125 g ai/ha, read-out: Plant response rating (0 to 100 scale), Morningglory) was 0% and the pest or weed control at 500 g/ha ([4]; Ipomoea, post-emergence, 240 h, Postemergence, read-out: Plant response rating (0 to 100 scale), Morningglory) was 0%. For the same compound, the pest or weed control at 500 g/ha ([4]; Ipomoea, pre-emergence, 240 h, Preemergence, read-out: Plant response rating (0 to 100 scale), Morningglory) was 0%, the “Morningglory plant response rating (0 = no effect, 100 = complete control)” value ([4]; Preemergence, 125 g ai/ha) was 0 and the pest or weed control at 125 g/ha ([5]; Amaranthus retroflexus, post-emergence, 240 h, Postemergence, 125 g ai/ha, read-out: Plant response rating (0 to 100 scale), Pigweed) was 90%. For the same compound, the pest or weed control at 500 g/ha ([5]; Amaranthus retroflexus, post-emergence, 240 h, Postemergence, read-out: Plant response rating (0 to 100 scale), Pigweed) was 100%, the pest or weed control at 500 g/ha ([5]; Amaranthus retroflexus, pre-emergence, 240 h, Preemergence, read-out: Plant response rating (0 to 100 scale), Pigweed) was 100% and the “Pigweed plant response rating (0 = no effect, 100 = complete control)” value ([5]; Preemergence, 125 g ai/ha) was 70. For the same compound, the pest or weed control at 125 g/ha ([6]; post-emergence, Postemergence, 125 g ai/ha) was 80%, the pest or weed control at 500 g/ha ([6]; post-emergence, Postemergence) was 90% and the pest or weed control at 500 g/ha ([6]; pre-emergence, Preemergence) was 70%. For the same compound, the “Wheat plant response rating (0 = no effect, 100 = complete control)” value ([7]; Preemergence, 125 g ai/ha) was 0, the plant injury at 125 g/ha ([7]; Triticum aestivum, post-emergence, 240 h, Postemergence, 125 g ai/ha, read-out: Plant response rating (0 to 100 scale), Wheat) was 0% and the plant injury at 500 g/ha ([7]; Triticum aestivum, post-emergence, 240 h, Postemergence, read-out: Plant response rating (0 to 100 scale), Wheat) was 0%. The plant injury at 500 g/ha ([7]; Triticum aestivum, pre-emergence, 240 h, Preemergence, read-out: Plant response rating (0 to 100 scale), Wheat) was 0%, the pest or weed control at 62 g/ha [8, 11] was 0% and the pest or weed control at 125 g/ha [8, 11] was 0%. For the same compound, the pest or weed control at 250 g/ha [8, 12] was 0%, the pest or weed control at 500 g/ha [8, 12] was 0% and the pest or weed control at 62 g/ha [8, 13] was 0%. It also gave a pest or weed control at 125 g/ha [8, 13] of 0%, a pest or weed control at 250 g/ha ([8]; pre-emergence, Preemergence) of 0% and a pest or weed control at 500 g/ha ([8]; pre-emergence, Preemergence) of 0%. For the same compound, the pest or weed control at 62 g/ha [9, 14] was 0%, the pest or weed control at 125 g/ha [9, 14] was 0% and the pest or weed control at 250 g/ha [9, 12] was 0%. For the same compound, the pest or weed control at 500 g/ha [9, 12] was 0%, the pest or weed control at 62 g/ha [9, 15] was 0% and the pest or weed control at 125 g/ha [9, 15] was 0%. For the same compound, the pest or weed control at 250 g/ha ([9]; pre-emergence, Preemergence) was 0%, the pest or weed control at 500 g/ha ([9]; pre-emergence, Preemergence) was 0% and the plant injury at 62 g/ha (soybean (Glycine max); [16]) was 0%. For the same compound, the plant injury at 125 g/ha (soybean (Glycine max); [16]) was 0%, the plant injury at 250 g/ha (soybean (Glycine max); [12]) was 0% and the plant injury at 500 g/ha (soybean (Glycine max); [12]) was 10%. For the same compound, the plant injury at 62 g/ha (soybean (Glycine max); [17]) was 0%, the plant injury at 125 g/ha (soybean (Glycine max); [17]) was 0% and the plant injury at 250 g/ha (soybean (Glycine max); pre-emergence, Preemergence) was 75%. For the same compound, the plant injury at 500 g/ha (soybean (Glycine max); pre-emergence, Preemergence) was 60%, the pest or weed control at 62 g/ha ([10]; 62 g ai/ha) was 100% and the pest or weed control at 125 g/ha ([10]; 125 g ai/ha) was 85%. The pest or weed control at 250 g/ha ([10]; 250 g ai/ha, scale 0 to 100) was 100%, the pest or weed control at 500 g/ha ([10]; 500 g ai/ha, scale 0 to 100) was 100% and the pest or weed control at 62 g/ha (kochia (Kochia scoparia); 62 g ai/ha) was 85%. For the same compound, the pest or weed control at 125 g/ha (kochia (Kochia scoparia); 125 g ai/ha) was 80%, the pest or weed control at 250 g/ha (kochia (Kochia scoparia); 250 g ai/ha, scale 0 to 100) was 85% and the pest or weed control at 500 g/ha (kochia (Kochia scoparia); 500 g ai/ha, scale 0 to 100) was 90%. It also gave a pest or weed control at 62 g/ha (wild oat (Avena fatua); 62 g ai/ha) of 0%, a pest or weed control at 125 g/ha (wild oat (Avena fatua); 125 g ai/ha) of 0% and a pest or weed control at 250 g/ha (wild oat (Avena fatua); 250 g ai/ha, scale 0 to 100) of 0%. It also gave a pest or weed control at 500 g/ha (wild oat (Avena fatua); 500 g ai/ha, scale 0 to 100) of 5%.
